Results as given in patent US11497212B2, “Substituted thiophenyl uracils, salts thereof and the use thereof as herbicidal agents” (Syngenta Crop Protection AG, priority 2017, dated 2022).

Tests used:
Type in all cases: in vivo
[1] = tested on: Abutilon theophrasti; experiment: Herbicidal action post-emergence (greenhouse pot trial); details: application rate 20 g/ha, scored visually after about 3 weeks vs untreated controls
Experimental: (§1) Seeds of mono- and dicotyledonous weed plants and crop plants are laid out in sandy loam soil in plastic or wood-fiber pots, covered with earth and grown under controlled growth conditions in a greenhouse. 2 to 3 weeks after sowing, the trial plants are treated at the one-leaf stage. The compounds of the invention formulated in the form of wettable powders (WP) or emulsion concentrates (EC) were then sprayed onto the green parts of the plant as an aqueous suspension or emulsion with addition of 0.5% additive at a water application rate equivalent to 600 L/ha. After the trial plants had stood for about 3 weeks in the greenhouse, under optimal growth conditions, the effect of the preparations was scored visually by comparison with untreated controls. For example, 100% efficacy=plants have died, 0% efficacy=like control plants. Tables A1 to A15 below show the efficacies of selected compounds of the general formula (I) according to tables I.1 to I.60 on various harmful plants and an application rate corresponding to 80 g/ha or lower that were obtained by the aforementioned trial method.

[2] = tested on: Amaranthus retroflexus; experiment: as above; details: application rate 20 g/ha, scored visually after about 3 weeks vs untreated controls
Experimental: as §1

[3] = tested on: Digitaria sanguinalis; experiment: as above; details: application rate 20 g/ha
Experimental: as §1

[4] = tested on: Echinochloa crus-galli; experiment: as above; details: application rate 20 g/ha, scored visually after about 3 weeks vs untreated controls
Experimental: as §1

[5] = tested on: Matricaria inodora; experiment: as above; details: application rate 20 g/ha, scored visually after about 3 weeks vs untreated controls
Experimental: as §1

[6] = tested on: Pharbitis purpurea; experiment: as above; details: application rate 20 g/ha
Experimental: as §1

[7] = tested on: Polygonum convolvulus; experiment: as above; details: application rate 20 g/ha, scored visually after about 3 weeks vs untreated controls
Experimental: as §1

[8] = tested on: Setaria viridis; experiment: as above; details: application rate 20 g/ha, scored visually after about 3 weeks vs untreated controls
Experimental: as §1

[9] = tested on: Stellaria media; experiment: as above; details: application rate 20 g/ha, scored visually after about 3 weeks vs untreated controls
Experimental: as §1

[10] = tested on: Veronica persica; experiment: as above; details: application rate 20 g/ha
Experimental: as §1

[11] = tested on: Viola tricolor; experiment: as above; details: application rate 20 g/ha
Experimental: as §1

[12] = tested on: Triticum aestivum; experiment: Crop compatibility post-emergence (greenhouse pot trial)
Experimental: as §1, with “plants.” for “plants. Tables A1 to A15 below show the efficacies of selected compounds of the general formula (I) according to tables I.1 to I.60 on various harmful plants and an application rate corresponding to 80 g/ha or lower that were obtained by the aforementioned trial method.”
Crop plant compatibilities were also scored correspondingly.
The effects observed are reported here on selected crop plants by comparison with the untreated controls (values in %).

Row | SMILES | Triticum aestivum (Efficacy in %) ([12]; application rate 5 g/ha) [%] | Triticum aestivum (Efficacy in %) ([12]; application rate 20 g/ha) [%] | Abutilon theophrasti (Efficacy in %) [1] [%] | Amaranthus retroflexus (Efficacy in %) [2] [%] | Digitaria sanguinalis (Efficacy in %) [3] [%] | Echinochloa crus-galli (Efficacy in %) [4] [%] | Matricaria inodora (Efficacy in %) [5] [%] | Pharbitis purpurea (Efficacy in %) [6] [%] | Polygonum convolvulus (Efficacy in %) [7] [%] | Setaria viridis (Efficacy in %) [8] [%] | Stellaria media (Efficacy in %) [9] [%] | Veronica persica (Efficacy in %) [10] [%] | Viola tricolor (Efficacy in %) [11] [%]
1 | CC(C)C(Sc1cc(-n2c(=O)cc(C(F)(F)F)n(C)c2=O)c(F)cc1Cl)C(=O)OCC1CCOC1 (centres unmarked) [I.6-72] | 20 | – | 100 | 100 | 100 | 80 | 100 | 100 | 100 | 90 | 90 | 100 | 100
2 | CCC(C)C(Sc1cc(-n2c(=O)cc(C(F)(F)F)n(C)c2=O)c(F)cc1Cl)C(=O)OCC1CCCO1 (centres unmarked) [I.5-71] | – | 10 | 100 | 100 | 100 | 90 | 100 | 100 | 100 | 90 | 80 | 100 | 100
3 | CC(Sc1cc(-n2c(=O)cc(C(F)(F)F)n(C)c2=O)c(F)cc1Cl)C(=O)OCCOC(F)(F)F (centres unmarked) [I.1-41] | – | 20 | 100 | 100 | 100 | 100 | 90 | 100 | 100 | 100 | – | 100 | 100

Continued, in another order:

Row | Triticum aestivum (Efficacy in %) ([12]; application rate 5 g/ha) [%] | Triticum aestivum (Efficacy in %) ([12]; application rate 20 g/ha) [%] | SMILES | Abutilon theophrasti (Efficacy in %) [1] [%] | Amaranthus retroflexus (Efficacy in %) [2] [%] | Digitaria sanguinalis (Efficacy in %) [3] [%] | Echinochloa crus-galli (Efficacy in %) [4] [%] | Matricaria inodora (Efficacy in %) [5] [%] | Pharbitis purpurea (Efficacy in %) [6] [%] | Polygonum convolvulus (Efficacy in %) [7] [%] | Setaria viridis (Efficacy in %) [8] [%] | Stellaria media (Efficacy in %) [9] [%] | Veronica persica (Efficacy in %) [10] [%] | Viola tricolor (Efficacy in %) [11] [%]
4 | – | 20 | CCC(Sc1cc(-n2c(=O)cc(C(F)(F)F)n(C)c2=O)c(F)cc1Cl)C(=O)OCC1CCCS1 (centres unmarked) [I.2-81] | 100 | 100 | 100 | 100 | 100 | 100 | 100 | 100 | 100 | 100 | 100
5 | – | 20 | CC(Sc1cc(-n2c(=O)cc(C(F)(F)F)n(C)c2=O)c(F)cc1Cl)C(=O)OC1CCSC1 (centres unmarked) [I.1-123] | 100 | 100 | 80 | 100 | 100 | 100 | 100 | 100 | 100 | 100 | 100
6 | – | 20 | CC(C)=C(Sc1cc(-n2c(=O)cc(C(F)(F)F)n(C)c2=O)c(F)cc1Cl)C(=O)OCC1CCOC1 (centres unmarked) [I.42-72] | 100 | 100 | 100 | 90 | 100 | 100 | 100 | 100 | 90 | 100 | 100
